What all share (type): cell-based, human
Data set [1] in a line: Peptides toxicity assay (MTT assay), HeLa viability and proliferation. Conditions: human, HeLa cells, MTT, 24 h incubation, read-out: cell viability; for viability at 24 h, 50 µM: peptide at 50 μM (FIG. 3B); for viability at 24 h, 500 µM: peptide at 500 μM (FIG. 3B). The procedure:
(§1) HeLa viability and proliferation in the presence of peptides was tested using a 3-(4,5-dimethylthiazol-2-yl)-2,5-diphenyltetrazolium bromide (MTT) assay.
(§2) (cf. “MTT-cell proliferation assay” Cell Biology: A Laboratory Handbook, Academic Press, 1998, Second Ed. vol.1; Y. Liu et al., “Mechanism of cellular 3-(4,5-dimethylthiazol-2-yl)-2,5-diphenyltetrazolium bromide (MTT) reduction”, J. Neurochem. 1997 vol. 69 pp. 581-93).
(§3) For each assay 7×10^3 cells/cm^2 were seeded on a 96-well plate (Nange Nunc) (100 μl/hole) and cultured for 24 h. In order to avoid saturation in cell growth after 24 h of peptide incubation, 7×10^3 cells/cm^2 were used in the proliferation measurement (instead of 21.4×10^3 cells/cm^2 seeded in previous experiments). After complete adhesion to the plate, the culture medium was discarded. Peptides were added at growing concentrations of 50, 100, 500, and 1000 μM. The cells were incubated for 3 h or 24 h at 37° C. under 5% CO2 atmosphere. MTT was added 2 h before the final incubation time, i.e., after 1 h for the 3 h incubation time and after 22 h for the 24 h incubation time at a final concentration per hole of 0.5 mg/ml. The cells with peptide and MTT were incubated for a further 2 h and then the medium was discarded by aspiration. Isopropanol was added to dissolve formazan, a dark blue coloured crystal observed in the wells. Absorbance was measured at λ=570 nm, 30 min after the addition of isopropanol. The cell viability was expressed as a percent ratio of cells treated with peptide against cells untreated used as control.

The subject of data set [2] is HeLa cells. The data set is described as above. Conditions: for cytotoxicity (result in words): MTT staining, 24 h incubation with HeLa cells, concentrations up to 1000 μM (FIG. 3A, 3B). The protocol: as §1, §2, §3
Data set [3] relates to HeLa cells. Description: Microplate fluorimeter reader assay (cellular uptake of carboxyfluoresceinated peptides). The protocol:
Comparative properties of labelled peptides for translocation through the cell membrane were checked with HeLa human cell line. First, the extent of the uptake of the monomers, dimers and trimers at 50 μM concentration in HeLa cells was quantified using a fluorescence microplate reader assay. A dose-response analysis was then undertaken, incubating HeLa cells with the peptides at different concentrations. The cellular uptake of the new peptides was also studied by confocal laser scanning microscopy (CLSM).
HeLa cells were obtained from ATCC. They were maintained in DMEM ([…]) culture medium (Biological Industries) containing 10% Fetal Calf Serum (FCS), 2 mM glutamine, 50 u/ml penicillin and […] streptomycin. For confocal microscopy experiments, exponentially growing HeLa cells were detached from the culture flasks using a trypsin-0.25% EDTA solution and the cell suspension was seeded at a concentration of 21.4×10^3 cells/cm^2 onto glass coverslips or onto 8-well Lab-Teck™ chambered coverglass or on 96-well plate (Nalge Nunc International). Experiments were carried out 24 h later, when the confluence was about 60-70%. The carboxyfluoresceinated compounds were dissolved in PBS and sterilized with 0.22 μm filters (Millex-GV, PVDF, Durapore, Millipore). The peptides and 5(6)-carboxyfluorescein stock solutions were diluted in the cell culture medium. Non-adherent cells were washed away and attached cells were incubated at 37° C. in CO2 atmosphere in DMEM medium with a known concentration of peptides for 3 h.
For each assay, 21.4×10^3 cells/cm^2 were seeded and cultured for 24 h. After complete adhesion to the plate, the culture medium was changed. […] The measurement of fluorescence emitted was carried out after 30 min incubation with lysis buffer in a FL600 Microplate Fluorescence Reader (Bio-Tek). Fluorescence was measured at a λexcitation=485/20 nm and a λemission=530/25 nm. A triplicate of each peptide or carboxyfluorescein concentration was performed and the fluorescence emitted for the blanks (cells with culture medium and without peptides) was subtracted. […]

Ends that are not written are not given here.

In the case of `N=C(N)NCCC[C@H](NC(=O)[C@H](CCCNC(=N)N)NC(=O)[C@H](CCCNC(=N)N)NC(=O)[C@H](CCC(N)=O)NC(=O)[C@H](CCCNC(=N)N)NC(=O)[C@H](CCCNC(=N)N)NC(=O)[C@H](CCCCN)NC(=O)[C@H](CCCCN)NC(=O)[C@H](CCCNC(=N)N)NC(=O)c1ccc2c(c1)C(=O)OC21c2ccc(O)cc2Oc2cc(O)ccc21)C(N)=O` [CF-Tat-NH2], in data set [1], the viability at 24 h, 50 µM amounted to 64% and the viability at 24 h, 500 µM turned out to be 40%. For the same compound, the “cytotoxicity (result in words)” value in the data set on HeLa cells [2] is on record as “cytotoxic at relatively low concentrations”.

Turning to “(Arg-Lys-Lys-Arg-Arg-Gln-Arg-Arg-Arg)-NH2 (RKKRRQRRR-NH2) [Tat]”, in the data set with HeLa cells [2], the “concentration at which cytotoxic” value is 50 µM.

Regarding `CC[C@H](C)[C@H](NC(=O)[C@H](CCCCN)NC(=O)[C@@H](NC(=O)[C@H](CCC(N)=O)NC(=O)[C@H](CCCNC(=N)N)NC(=O)c1ccc2c(c1)C(=O)OC21c2ccc(O)cc2Oc2cc(O)ccc21)[C@@H](C)CC)C(=O)N[C@@H](Cc1c[nH]c2ccccc12)C(=O)N[C@@H](Cc1ccccc1)C(=O)N[C@@H](CCC(N)=O)C(=O)N[C@@H](CC(N)=O)C(=O)N[C@@H](CCCNC(=N)N)C(=O)N[C@@H](CCCNC(=N)N)C(=O)N[C@@H](CCSC)C(=O)N[C@@H](CCCCN)C(=O)N[C@@H](Cc1c[nH]c2ccccc12)C(=O)N[C@@H](CCCCN)C(=O)N[C@@H](CCCCN)C(N)=O` [CF-Antp-NH2], in data set [1], the viability at 24 h, 50 µM stood at 75% and the viability at 24 h, 500 µM was 11%. The “cytotoxicity (result in words)” value with HeLa cells [2] is on record as “cytotoxic at relatively low concentrations”.

Consider `CC[C@H](C)[C@H](NC(=O)[C@H](CCCCN)NC(=O)[C@@H](NC(=O)[C@H](CCC(N)=O)NC(=O)[C@@H](N)CCCNC(=N)N)[C@@H](C)CC)C(=O)N[C@@H](Cc1c[nH]c2ccccc12)C(=O)N[C@@H](Cc1ccccc1)C(=O)N[C@@H](CCC(N)=O)C(=O)N[C@@H](CC(N)=O)C(=O)N[C@@H](CCCNC(=N)N)C(=O)N[C@@H](CCCNC(=N)N)C(=O)N[C@@H](CCSC)C(=O)N[C@@H](CCCCN)C(=O)N[C@@H](Cc1c[nH]c2ccccc12)C(=O)N[C@@H](CCCCN)C(=O)N[C@@H](CCCCN)C(N)=O` [Antp, (Arg-Gln-Ile-Lys-Ile-Trp-Phe-Gln-Asn-Arg-Arg-Met-Lys-Trp-Lys-Lys)-NH2], for which the “concentration at which cytotoxic” value with HeLa cells [2] came out at 50 µM.

Regarding CF-(Val-Arg-Leu-Pro-Pro-Pro)3, in the data set with HeLa cells [3] (HeLa cells incubated 3 h at 50 μM, X=Arg and His, n=1-3 (FIG. 2A)), the “fluorescence emitted (uptake) compared with the other CF-(Val-X-Leu-Pro-Pro-Pro)n peptides” value was “higher fluorescence intensity”. The “degree of internalization measured against CF-Antp-NH2” value with HeLa cells [3] (HeLa cells, relative to CF-Antp-NH2) worked out at 20 times lower. Moreover, the “degree of internalization measured against CF-Tat-NH2” value in the data set on HeLa cells [3] (HeLa cells, relative to CF-Tat-NH2) was found to be 15 times lower.

(Values after US20090036363A1, “Peptides as cell penetrating carriers” (priority 2004, published 2009).)
